# Experimental data from patent EP0520823A2, “Non-substrate peptide inhibitors of farnesyl protein transferase” (MERCK & CO. INC., priority 1991, dated 1992).
# pIC50: −log10 of the molar value. Where a SMILES comes first, the peptide text is derived from it. [ ]: non-standard residue; d: D form.
# How the values were obtained:
# [1] = system: partially pure bovine brain farnesyl-protein transferase; test: Tetrapeptides tested as farnesylation substrates ([3H]FPP, TLC, autoradiography); assay type: biochemical; conditions: peptide 200 µM, 0.5 µM [3H] FPP, 30 min. at 30°C
# Description: When a peptide was used as the acceptor substrate, there were two changes to the assay: (1) Ras protein was excluded and, (2) the reactions were stopped by the additon of one tenth volume of 0.5 M EDTA. […] After drying under vacuum, the plates were sprayed with […] exposed to X-ray film at -70°C. […] These Rf values reflect TLC conditions using ethylacetate:pyridine: acetic acid:water (10:5:1:3) as the eluent. […] CAIS (Rf=0.84) and CAIM (Rf=0.83)). Quenched reaction mixtures containing peptide, farnesyldiphosphate and farnesyl-protein transferase were separated by TLC followed by visualization of the radioactive species by autoradiography. […] Control peptides having a […] substitution were not substrates. […] Autoradiographic exposure time was overnight (15-20 hr).
# [2] = molecular target: T1, Farnesyl-protein transferase from bovine brain (partially purified) (Bos taurus, UniProt P29702+P49355); test: Inhibition of Ras farnesylation by tetrapeptides; assay type: biochemical; conditions: Ras-CVLS at 3.5 µM, 0.25 µM [³H]FPP; average of 2-5 determinations
# T1 construct: Cerebral lobes from bovine brains were homogenized in lysis buffer; from tissue; host or cells: bovine brain (cerebral lobes)
# Description: The quenched reactions were allowed to stand for 15 minutes (to complete the precipitation process).
# Fractions (20 mL) were collected and those containing farnesyl-protein transferase activity were pooled.
# Single capital letter amino acid abbreviations are used above.
# [3] = system: bovine brain farnesyl-protein transferase; conditions: earlier findings (Schaber et al.); cited from earlier work
Compound,pIC50 [2],Farnesylation substrate [1],substrate for isoprenylation [3]
"CSCC[C@H](NC(=O)[C@@H](Cc1ccccc1)NC(=O)[C@@H](NC(=O)[C@@H](N)CS)C(C)C)C(=O)O [CV(dF)M, Cys-Val-D-Phe-Met]",–,- (- < 1% conversion),–
CC(=O)N[C@@H](CS)C(=O)N[C@H](C(=O)N[C@@H](CC(C)C)C(=O)N[C@@H](CO)C(=O)O)C(C)C [N-Ac-CVLS] (Ac-CVLS-OH),5.70,+ (+ > 90% [^3H] farnesyl diphosphate converted to [^3H] farnesyl tetrapeptide),–
CC(=O)N[C@H](CS)C(=O)N[C@H](C(=O)N[C@@H](CC(C)C)C(=O)N[C@@H](CO)C(=O)O)C(C)C [N-Ac-(dC)VLS] (Ac-[dC]VLS-OH),4.22,+ (+ > 90% [^3H] farnesyl diphosphate converted to [^3H] farnesyl tetrapeptide),–
CC(C)C[C@H](NC(=O)[C@@H](NC(=O)[C@@H](N)CO)C(C)C)C(=O)N[C@@H](CO)C(=O)O [SVLS] (H-SVLS-OH),–,- (- < 1% conversion),–
SSGCVLS [heptapeptide SSGCVLS],–,–,served as a substrate for isoprenylation

# Now from value to compound, other results behind:
pIC50 [2],Compound,Farnesylation substrate [1],substrate for isoprenylation [3]
4.96,CC(C)C[C@H](NC(=O)[C@@H](NC(=O)[C@@H](N)CS)C(C)C)C(=O)N[C@H](CO)C(=O)O [CVL(dS)],+ (+ > 90% [^3H] farnesyl diphosphate converted to [^3H] farnesyl tetrapeptide),–
4.70,"CC(C)C[C@@H](NC(=O)[C@@H](NC(=O)[C@@H](N)CS)C(C)C)C(=O)N[C@@H](CO)C(=O)O [CV(dL)S, Cys-Val-D-Leu-Ser]",- (- < 1% conversion),–
